Biological target: T1, TESK2 (Homo sapiens, UniProt Q96S53)
T1 construct: purchased Thermo Fisher Scientific (Life Technologies) SelectScreen
Test: SelectScreen LanthaScreen
Type: binding
Conditions: read-out: % displacement
Procedure, shortened: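 SelectScreen broad panel; activity (Z'LYTE, Adapta) plus binding formats. ATP: Km app for CSF1R Z'LYTE; 10 for CAMK1 Adapta. Readout = % per kinase.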

T1 sequence (Q96S53 whole entry): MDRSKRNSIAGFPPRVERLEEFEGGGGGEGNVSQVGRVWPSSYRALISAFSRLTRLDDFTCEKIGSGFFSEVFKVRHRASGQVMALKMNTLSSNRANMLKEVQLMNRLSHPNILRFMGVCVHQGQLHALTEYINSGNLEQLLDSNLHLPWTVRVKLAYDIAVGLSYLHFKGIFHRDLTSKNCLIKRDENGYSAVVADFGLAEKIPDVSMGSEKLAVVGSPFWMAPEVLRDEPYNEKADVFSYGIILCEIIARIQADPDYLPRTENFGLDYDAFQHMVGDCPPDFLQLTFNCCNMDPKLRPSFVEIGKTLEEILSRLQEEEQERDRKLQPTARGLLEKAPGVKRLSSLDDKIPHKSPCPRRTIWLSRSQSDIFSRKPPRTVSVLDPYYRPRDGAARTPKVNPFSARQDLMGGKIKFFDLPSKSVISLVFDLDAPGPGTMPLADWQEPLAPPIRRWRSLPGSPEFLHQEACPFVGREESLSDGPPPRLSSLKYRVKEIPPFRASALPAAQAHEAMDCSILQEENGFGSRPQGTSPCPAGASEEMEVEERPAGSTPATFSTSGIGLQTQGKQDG

CN(C(=O)CN1CCOCC1)c1ccc2sc3c(-c4cccc5c(=O)cc(N6CC7CCC(C6)O7)oc45)cccc3c2c1 [NU5455]
inhibition at 1 µM: 2.7%

Reference: article PMC6934184, “Selective DNA-PKcs inhibition extends the therapeutic index of localized radiotherapy and chemotherapy” (The Journal of Clinical Investigation, 2019)
